Laboratory results from paper PMC6308944, “Anti-Candida albicans Activity of Thiazolylhydrazone Derivatives in Invertebrate and Murine Models” (Journal of Fungi, 2018).

System: C. albicans CAN14
Test: Murine model of oral candidiasis
Assay type: in vivo, C57BL/6 mice
Conditions: 600 IU, into the mouth every 12 h for 4 days, immunosuppressed mice

SMILES: C[C@@H]1[C@H](O)[C@@H](C)/C=C/C=C/CC/C=C/C=C/C=C/C=C/C(O[C@H]2O[C@H](C)[C@@H](O)[C@H](N)[C@@H]2O)CC2O[C@](O)(CC(O)C(O)CCC(O)CC(O)CC(O)CC(=O)O[C@H]1C)CC(O)C2C(=O)O (stereo partly shown) [nystatin]
- fungal load on the tongue (CFU) versus untreated control: lower
